# Data: PubChem BioAssay (NCI)
#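 1) Cells in 96-well plates. 2) Compound, 48 h, 5 concentrations. 3) Linear interpolation between surrounding doses. 4) Unreached endpoint = highest concentration. Abbreviation: GI50, concentration required for 50% inhibition of growth. TGI is the concentration that stops growth completely.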
# Columns and labels:
# Assay in all cases: NCI-60 cell line screen, 48 h
# HT29 colon = tested on: HT29 colon
# MALME-3M melanoma = tested on: MALME-3M melanoma
# OVCAR-5 ovarian = tested on: OVCAR-5 ovarian
# UACC-62 melanoma = tested on: UACC-62 melanoma
# NCI-H522 lung = tested on: NCI-H522 lung
# OVCAR-8 ovarian = tested on: OVCAR-8 ovarian
# UACC-257 melanoma = tested on: UACC-257 melanoma
# HS 578T breast = tested on: HS 578T breast
# U251 CNS = tested on: U251 CNS
# A498 renal = tested on: A498 renal
# NCI-H460 lung = tested on: NCI-H460 lung
# MDA-MB-435 = tested on: MDA-MB-435
# PC-3 prostate = tested on: PC-3 prostate
# RPMI-8226 leukemia = tested on: RPMI-8226 leukemia
# CCRF-CEM leukemia = tested on: CCRF-CEM leukemia
# RXF 393 renal = tested on: RXF 393 renal
# OVCAR-3 ovarian = tested on: OVCAR-3 ovarian
# K-562 leukemia = tested on: K-562 leukemia
# LOX IMVI melanoma = tested on: LOX IMVI melanoma
# SK-MEL-28 melanoma = tested on: SK-MEL-28 melanoma
# SF-539 CNS = tested on: SF-539 CNS
# HCT-116 colon = tested on: HCT-116 colon
# HCC-2998 colon = tested on: HCC-2998 colon
# 786-0 renal = tested on: 786-0 renal
# DU-145 prostate = tested on: DU-145 prostate
# IGROV1 ovarian = tested on: IGROV1 ovarian
# SNB-75 CNS = tested on: SNB-75 CNS
# HOP-92 NSCLC = tested on: HOP-92 NSCLC
# SK-MEL-5 melanoma = tested on: SK-MEL-5 melanoma
# HCT-15 colon = tested on: HCT-15 colon
# MDA-MB-231 breast = tested on: MDA-MB-231 breast
# NCI/ADR-RES ovarian = tested on: NCI/ADR-RES ovarian
# NCI-H226 lung = tested on: NCI-H226 lung
# TK-10 renal = tested on: TK-10 renal
# KM12 colon = tested on: KM12 colon
# SF-268 CNS = tested on: SF-268 CNS
# SNB-19 CNS = tested on: SNB-19 CNS
# A549 NSCLC = tested on: A549 NSCLC
# SF-295 CNS = tested on: SF-295 CNS
# ACHN renal = tested on: ACHN renal
# MCF7 breast = tested on: MCF7 breast
# CAKI-1 renal = tested on: CAKI-1 renal
# UO-31 renal = tested on: UO-31 renal
# SW-620 colon = tested on: SW-620 colon
# NCI-H23 lung = tested on: NCI-H23 lung
# SN12C renal = tested on: SN12C renal
# SR leukemia = tested on: SR leukemia
# T-47D breast = tested on: T-47D breast
# EKVX NSCLC = tested on: EKVX NSCLC
# HOP-62 NSCLC = tested on: HOP-62 NSCLC
# M14 melanoma = tested on: M14 melanoma
# SK-MEL-2 melanoma = tested on: SK-MEL-2 melanoma
# MOLT-4 leukemia = tested on: MOLT-4 leukemia
# HL-60(TB) leukemia = tested on: HL-60(TB) leukemia
# BT-549 breast = tested on: BT-549 breast
# SK-OV-3 ovarian = tested on: SK-OV-3 ovarian
# OVCAR-4 ovarian = tested on: OVCAR-4 ovarian
smiles,measurement,setting,value
CCOC(=O)c1ccc2c(c1)c1c(C)c3cnccc3c(C)c1n2C,GI50,HT29 colon,56.1 nM
same,TGI,HT29 colon,1410 nM
same,GI50,MALME-3M melanoma,131 nM
same,TGI,MALME-3M melanoma,407 nM
same,GI50,OVCAR-5 ovarian,216 nM
same,TGI,OVCAR-5 ovarian,912 nM
same,GI50,UACC-62 melanoma,98.4 nM
same,TGI,UACC-62 melanoma,264 nM
same,GI50,NCI-H522 lung,88.1 nM
same,TGI,NCI-H522 lung,318 nM
same,GI50,OVCAR-8 ovarian,116 nM
same,TGI,OVCAR-8 ovarian,2990 nM
same,GI50,UACC-257 melanoma,181 nM
same,TGI,UACC-257 melanoma,651 nM
same,GI50,HS 578T breast,204 nM
same,TGI,HS 578T breast,900 nM
same,GI50,U251 CNS,99.2 nM
same,TGI,U251 CNS,830 nM
same,GI50,A498 renal,162 nM
same,TGI,A498 renal,376 nM
same,GI50,NCI-H460 lung,265 nM
same,TGI,NCI-H460 lung,1070 nM
same,GI50,MDA-MB-435,142 nM
same,TGI,MDA-MB-435,501 nM
same,GI50,PC-3 prostate,137 nM
same,TGI,PC-3 prostate,821 nM
same,GI50,RPMI-8226 leukemia,95.3 nM
same,TGI,RPMI-8226 leukemia,1800 nM
same,GI50,CCRF-CEM leukemia,216 nM
same,TGI,CCRF-CEM leukemia,2940 nM
same,GI50,RXF 393 renal,120 nM
same,TGI,RXF 393 renal,390 nM
same,GI50,OVCAR-3 ovarian,119 nM
same,TGI,OVCAR-3 ovarian,470 nM
same,GI50,K-562 leukemia,79.2 nM
same,TGI,K-562 leukemia,1320 nM
same,GI50,LOX IMVI melanoma,55.8 nM
same,TGI,LOX IMVI melanoma,310 nM
same,GI50,SK-MEL-28 melanoma,183 nM
same,TGI,SK-MEL-28 melanoma,463 nM
same,GI50,SF-539 CNS,173 nM
same,TGI,SF-539 CNS,1070 nM
same,GI50,HCT-116 colon,37.8 nM
same,TGI,HCT-116 colon,1030 nM
same,GI50,HCC-2998 colon,257 nM
same,TGI,HCC-2998 colon,1290 nM
same,GI50,786-0 renal,141 nM
same,TGI,786-0 renal,1110 nM
same,GI50,DU-145 prostate,108 nM
same,TGI,DU-145 prostate,718 nM
same,GI50,IGROV1 ovarian,53.9 nM
same,TGI,IGROV1 ovarian,357 nM
same,GI50,SNB-75 CNS,141 nM
same,TGI,SNB-75 CNS,703 nM
same,GI50,HOP-92 NSCLC,143 nM
same,TGI,HOP-92 NSCLC,813 nM
same,GI50,SK-MEL-5 melanoma,192 nM
same,TGI,SK-MEL-5 melanoma,651 nM
same,GI50,HCT-15 colon,57.1 nM
same,TGI,HCT-15 colon,921 nM
same,GI50,MDA-MB-231 breast,160 nM
same,TGI,MDA-MB-231 breast,892 nM
same,GI50,NCI/ADR-RES ovarian,68.2 nM
same,TGI,NCI/ADR-RES ovarian,600 nM
same,GI50,NCI-H226 lung,91.1 nM
same,TGI,NCI-H226 lung,382 nM
same,GI50,TK-10 renal,334 nM
same,TGI,TK-10 renal,1310 nM
same,GI50,KM12 colon,128 nM
same,TGI,KM12 colon,1030 nM
same,GI50,SF-268 CNS,98.8 nM
same,TGI,SF-268 CNS,823 nM
same,GI50,SNB-19 CNS,107 nM
same,TGI,SNB-19 CNS,1330 nM
same,GI50,A549 NSCLC,147 nM
same,TGI,A549 NSCLC,1020 nM
same,GI50,SF-295 CNS,128 nM
same,TGI,SF-295 CNS,765 nM
same,GI50,ACHN renal,38.5 nM
same,TGI,ACHN renal,328 nM
same,GI50,MCF7 breast,205 nM
same,TGI,MCF7 breast,1030 nM
same,GI50,CAKI-1 renal,47.5 nM
same,TGI,CAKI-1 renal,859 nM
same,GI50,UO-31 renal,53.6 nM
same,TGI,UO-31 renal,728 nM
same,GI50,SW-620 colon,48.2 nM
same,TGI,SW-620 colon,839 nM
same,GI50,NCI-H23 lung,100 nM
same,TGI,NCI-H23 lung,417 nM
same,GI50,SN12C renal,78.3 nM
same,TGI,SN12C renal,865 nM
same,GI50,SR leukemia,44.7 nM
same,GI50,T-47D breast,382 nM
same,TGI,T-47D breast,15800 nM
same,GI50,EKVX NSCLC,193 nM
same,TGI,EKVX NSCLC,690 nM
same,GI50,HOP-62 NSCLC,75.5 nM
same,TGI,HOP-62 NSCLC,1070 nM
same,GI50,M14 melanoma,151 nM
same,TGI,M14 melanoma,383 nM
same,GI50,SK-MEL-2 melanoma,190 nM
same,TGI,SK-MEL-2 melanoma,677 nM
same,GI50,MOLT-4 leukemia,59.4 nM
same,TGI,MOLT-4 leukemia,1660 nM
same,GI50,HL-60(TB) leukemia,324 nM
same,TGI,HL-60(TB) leukemia,1490 nM
same,GI50,BT-549 breast,441 nM
same,TGI,BT-549 breast,1880 nM
same,GI50,SK-OV-3 ovarian,216 nM
same,TGI,SK-OV-3 ovarian,713 nM
same,GI50,OVCAR-4 ovarian,217 nM
same,TGI,OVCAR-4 ovarian,697 nM
